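Values below derive from 48-hour exposures of cells grown in 96-well plates, with endpoints linearly interpolated between the two concentrations bracketing the appropriate inhibition level. Abbreviation: GI50, concentration required for 50% inhibition of growth. Definition used: TGI = concentration required for complete inhibition of growth.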
Assays:
Assay in all cases: DTP human tumour cell line panel, 48 h
[1] = tested on: CCRF-CEM leukemia
[2] = tested on: HL-60(TB) leukemia
[3] = tested on: HOP-62 NSCLC
[4] = tested on: HOP-92 NSCLC
[5] = tested on: IGROV1 ovarian
[6] = tested on: MCF7 breast
[7] = tested on: NCI-H23 lung
[8] = tested on: PC-3 prostate
[9] = tested on: RPMI-8226 leukemia
[10] = tested on: SF-295 CNS

Compound: CN(C)CCNc1c2c(c(NCCN(C)C)c3[nH]ccc13)C(=O)c1ccccc1C2=O
- GI50 [1]: 0.281 µM
- GI50 [2]: 1.39 µM
- GI50 [3]: 0.894 µM
- TGI [3]: 9.27 µM
- GI50 [4]: 6.08 µM
- TGI [4]: 28.5 µM
- GI50 [5]: 1.19 µM
- TGI [5]: > 100 µM
- GI50 [6]: 0.371 µM
- GI50 [7]: 1.82 µM
- GI50 [8]: 0.609 µM
- TGI [8]: 11.1 µM
- GI50 [9]: 0.737 µM
- TGI [9]: 2.79 µM
- GI50 [10]: 0.693 µM
- TGI [10]: 3.25 µM

Compound: COc1ccc(-c2c3c(N)nc(-c4ccncc4)nc3nc3c2c(C)nn3-c2ccccc2)cc1
- GI50 [1]: 5.93 µM
- TGI [1]: > 100 µM
- GI50 [2]: > 100 µM
- TGI [2]: > 100 µM
- GI50 [3]: 2.41 µM
- TGI [3]: 37.6 µM
- GI50 [4]: 36.2 µM
- TGI [4]: > 100 µM
- GI50 [5]: 59.3 µM
- TGI [5]: > 100 µM
- GI50 [6]: 4.28 µM
- TGI [6]: > 100 µM
- GI50 [7]: 9.67 µM
- TGI [7]: > 100 µM
- GI50 [8]: > 100 µM
- TGI [8]: > 100 µM
- GI50 [9]: > 100 µM
- TGI [9]: > 100 µM
- GI50 [10]: 24.7 µM
- TGI [10]: > 100 µM

Compound: O=C1/C(=C\c2c[nH]c3ccccc23)c2ccccc2N1c1c(Cl)cccc1Cl
- GI50 [1]: 2.42 µM
- TGI [1]: 7.23 µM
- GI50 [2]: 1.55 µM
- TGI [2]: 3.82 µM
- GI50 [3]: 1.38 µM
- TGI [3]: 2.75 µM
- GI50 [4]: 2 µM
- TGI [4]: 3.54 µM
- GI50 [5]: 1.19 µM
- TGI [5]: 3.18 µM
- GI50 [6]: 1.74 µM
- TGI [6]: 3.76 µM
- GI50 [7]: 1.66 µM
- TGI [7]: 3.38 µM
- GI50 [8]: 1.35 µM
- TGI [8]: 2.96 µM
- GI50 [9]: 1.89 µM
- TGI [9]: 4.68 µM
- GI50 [10]: 1.75 µM
- TGI [10]: 3.51 µM

Compound: CCCC(C)c1cc(Cc2cc(Cl)cc(Cl)c2O)c(O)c(Cc2cc(Cl)cc(Cl)c2O)c1 (stereo not given)
- GI50 [1]: 0.432 µM
- TGI [1]: 3.74 µM
- GI50 [2]: 1.1 µM
- TGI [2]: 9.44 µM
- GI50 [3]: 2.7 µM
- TGI [3]: 12 µM
- GI50 [4]: 0.128 µM
- TGI [4]: 0.496 µM
- GI50 [5]: 2.73 µM
- TGI [5]: 14.5 µM
- GI50 [6]: 0.798 µM
- TGI [6]: 10.2 µM
- GI50 [7]: 0.789 µM
- TGI [7]: 9.64 µM
- GI50 [8]: 0.43 µM
- TGI [8]: 4.52 µM
- GI50 [9]: 0.363 µM
- TGI [9]: 2.5 µM
- GI50 [10]: 1.17 µM
- TGI [10]: 3.56 µM

Compound: CCCCCCCCCCC(C(=O)O)C1(C(=O)O)CCC(=O)O1 (stereo not given)
- TGI [1]: > 100 µM
- TGI [2]: > 100 µM
- TGI [3]: > 100 µM
- TGI [4]: > 100 µM
- TGI [5]: > 100 µM
- TGI [6]: > 100 µM
- TGI [7]: > 100 µM
- TGI [8]: > 100 µM
- TGI [9]: > 100 µM
- TGI [10]: > 100 µM

Compound: CN1CCC(n2cnc(-c3ccc(F)cc3)c2-c2ccnc(NCCO)n2)CC1
- GI50 [1]: > 25 µM
- TGI [1]: > 25 µM
- GI50 [2]: > 25 µM
- TGI [2]: > 25 µM
- GI50 [3]: > 25 µM
- TGI [3]: > 25 µM
- GI50 [4]: 5.43 µM
- TGI [4]: > 25 µM
- GI50 [5]: 18.1 µM
- TGI [5]: > 25 µM
- GI50 [6]: 3.78 µM
- TGI [6]: > 25 µM
- GI50 [7]: > 25 µM
- TGI [7]: > 25 µM
- GI50 [8]: > 25 µM
- TGI [8]: > 25 µM
- GI50 [9]: > 25 µM
- TGI [9]: > 25 µM
- GI50 [10]: > 19.8 µM
- TGI [10]: > 25 µM

Compound: CCCC(=O)OC1C(C(O)CO)OC2OC(C)(C)OC21 (stereo not given)
- TGI [1]: < 3.16 µM
- TGI [2]: < 3.16 µM
- TGI [3]: > 100 µM
- TGI [4]: > 100 µM
- TGI [5]: > 100 µM
- TGI [6]: > 100 µM
- TGI [7]: > 100 µM
- TGI [8]: > 100 µM
- TGI [9]: > 100 µM
- TGI [10]: > 100 µM

Compound: Cc1ccccc1[P+](Cc1ccccc1)(c1ccccc1)c1ccccc1
- GI50 [1]: 2.1 µM
- TGI [1]: 33.5 µM
- GI50 [2]: 1.23 µM
- TGI [2]: 4.04 µM
- GI50 [3]: 4.34 µM
- TGI [3]: > 100 µM
- GI50 [5]: 1.8 µM
- TGI [5]: 32.1 µM
- GI50 [6]: 0.89 µM
- TGI [6]: > 100 µM
- GI50 [8]: 1.45 µM
- TGI [8]: > 100 µM
- GI50 [9]: 0.603 µM
- TGI [9]: 6.34 µM
- GI50 [10]: 1.75 µM
- TGI [10]: 5.28 µM

Compound: O=C(NCCO)Nc1ccc(-c2nc(N3CCOCC3)c3cccn3n2)cc1
- GI50 [1]: 2.98 µM
- TGI [1]: > 100 µM
- GI50 [2]: 2.21 µM
- TGI [2]: > 100 µM
- GI50 [3]: 0.122 µM
- TGI [3]: 3.85 µM
- GI50 [4]: 0.0466 µM
- TGI [4]: 1.09 µM
- GI50 [5]: 0.167 µM
- TGI [5]: 1.08 µM
- GI50 [6]: 0.0703 µM
- TGI [6]: > 100 µM
- GI50 [7]: 0.239 µM
- TGI [7]: > 100 µM
- GI50 [8]: 0.103 µM
- TGI [8]: > 100 µM
- GI50 [9]: 0.405 µM
- TGI [9]: > 54.6 µM
- GI50 [10]: 0.117 µM
- TGI [10]: 2.13 µM

Compound: COc1cccc(-n2ncc3c(N/N=C/c4ccc(C(=O)NCCN(C)C)cc4)ncnc32)c1
- GI50 [1]: 4.17 µM
- TGI [1]: 11.2 µM
- GI50 [2]: 5.58 µM
- TGI [2]: 10.5 µM
- GI50 [3]: 4.14 µM
- TGI [3]: 7.81 µM
- GI50 [4]: > 25 µM
- TGI [4]: > 25 µM
- GI50 [5]: 1.58 µM
- TGI [5]: 6.16 µM
- GI50 [6]: 3.02 µM
- TGI [6]: 6.82 µM
- GI50 [7]: 3.89 µM
- TGI [7]: 8.29 µM
- GI50 [8]: 2.97 µM
- TGI [8]: 6.47 µM
- GI50 [9]: 6.33 µM
- TGI [9]: 12.9 µM
- GI50 [10]: 3.85 µM
- TGI [10]: 7.93 µM

Compound: COc1cc2c(c(OC)c1)C1c3ccccc3NC(=O)N1CC2 (stereo not given)
- GI50 [1]: 2.67 µM
- TGI [1]: > 100 µM
- GI50 [2]: 2.12 µM
- TGI [2]: 5.56 µM
- GI50 [3]: 3.28 µM
- TGI [3]: > 100 µM
- GI50 [4]: 7.25 µM
- TGI [4]: > 100 µM
- GI50 [5]: 7.71 µM
- TGI [5]: > 100 µM
- GI50 [6]: 3.13 µM
- TGI [6]: > 100 µM
- GI50 [7]: 3.69 µM
- TGI [7]: > 100 µM
- GI50 [8]: 3.89 µM
- TGI [8]: > 100 µM
- GI50 [9]: 5.39 µM
- TGI [9]: 68.2 µM
- GI50 [10]: 2.63 µM
- TGI [10]: 9.14 µM

Compound: Cc1ccc(N=Nc2c(O)c(C(=O)O)cc3ccccc23)cc1C
- TGI [1]: > 100 µM
- TGI [2]: > 100 µM
- TGI [3]: > 100 µM
- TGI [4]: > 100 µM
- TGI [5]: > 100 µM
- TGI [6]: > 100 µM
- TGI [7]: > 100 µM
- TGI [8]: > 100 µM
- TGI [9]: > 100 µM
- TGI [10]: > 100 µM

Compound: OC(c1cc(-c2ccccc2)nc2ccc(Cl)cc12)C1CCCCN1 (stereo not given)
- GI50 [1]: 2.59 µM
- TGI [1]: 7.69 µM
- GI50 [2]: 2.26 µM
- TGI [2]: 4.82 µM
- GI50 [4]: 2.02 µM
- TGI [4]: 6.87 µM
- GI50 [5]: 1.9 µM
- TGI [5]: 4.19 µM
- GI50 [6]: 1.67 µM
- TGI [6]: 3.14 µM
- GI50 [7]: 1.79 µM
- TGI [7]: 3.42 µM
- GI50 [8]: 2.21 µM
- TGI [8]: 4.79 µM
- GI50 [9]: 2.25 µM
- TGI [9]: 5.49 µM
- GI50 [10]: 1.9 µM
- TGI [10]: 3.55 µM

Compound: O=c1cc(-c2ccccc2)[nH]c2ccccc12
- GI50 [1]: 0.738 µM
- TGI [1]: > 100 µM
- GI50 [2]: 0.52 µM
- TGI [2]: > 100 µM
- GI50 [3]: 4.85 µM
- TGI [3]: > 100 µM
- GI50 [4]: 0.571 µM
- TGI [4]: > 100 µM
- GI50 [5]: 2.35 µM
- TGI [5]: > 33.7 µM
- GI50 [6]: 0.383 µM
- TGI [6]: > 100 µM
- GI50 [7]: 1.16 µM
- TGI [7]: > 100 µM
- GI50 [8]: 0.403 µM
- TGI [8]: > 100 µM
- GI50 [9]: 1.18 µM
- TGI [9]: > 63 µM
- GI50 [10]: 0.458 µM
- TGI [10]: > 100 µM

From PubChem BioAssay (NCI)
